The results in this text go back to ChEMBL document CHEMBL1149683, “Novel TOPP descriptors in 3D-QSAR analysis of apoptosis inducing 4-aryl-4H-chromenes: comparison versus other 2D- and 3D-descriptors” (2007).

The structures appear in SMILES notation.

The test deals with HL-60. The experiment in a line: Induction of apoptosis in human HL60 […]. Format: functional.
For `COc1ccc2c(c1)OC(N)=C(C#N)C2c1cc(Br)c(OC)c(OC)c1` (stereo not drawn), the “Log (1/C)” value stood at 7.77.

With `COc1ccc2c(c1)OC(N)=C(C#N)C2c1cccc(Br)c1` (stereo not drawn), the “Log (1/C)” value is on record as 7.28. With `COc1ccc2c(c1)OC(N)=C(C#N)C2c1cccc(Cl)c1` (stereo not drawn), the “Log (1/C)” value turned out to be 7.1.

On to `COc1cc(OC)cc(C2C(C#N)=C(N)Oc3cc(OC)ccc32)c1` (stereo not drawn), for which the “Log (1/C)” value came to 7.82. Take `COc1ccc2c(c1)OC(N)=C(C#N)C2c1cccc([N+](=O)[O-])c1` (stereo not drawn): the “Log (1/C)” value came out at 7.05.

In the case of `CCNc1ccc2c(c1)OC(N)=C(C#N)C2c1cc(OC)c2c(c1)OCO2` (stereo not drawn), the “Log (1/C)” value came to 6.48. `CCNc1cc2c(cc1C)C(c1cc(OC)c3c(c1)OCO3)C(C#N)=C(N)O2` (stereo not drawn): the “Log (1/C)” value came out at 5.96. As to `COc1cc(C2C(C#N)=C(N)Oc3cc(Cl)ccc32)cc(Br)c1OC` (stereo not drawn), the “Log (1/C)” value came to 6.8. For `CCOc1ccc2c(c1)OC(N)=C(C#N)C2c1cc(Br)c(OC)c(OC)c1` (stereo not drawn), the “Log (1/C)” value is reported as 7.19. As for `COc1cc(C2C(C#N)=C(N)Oc3cc(O)ccc32)cc(Br)c1OC` (stereo not drawn), the “Log (1/C)” value was found to be 6.89. Consider `COc1cc(C2C(C#N)=C(N)Oc3c2ccc(N)c3C)cc2c1OCO2` (stereo not drawn), for which the “Log (1/C)” value worked out at 6.51. With `N#CC1=C(N)Oc2c(ccc(N)c2N)C1c1cccc(Br)c1` (stereo not drawn) the figure was 6.82. The same measure for `COc1cc(C2C(C#N)=C(N)Oc3c2ccc(O)c3O)cc(Br)c1OC` (stereo not drawn): 5.77. In the case of `COc1ccc2c(c1)OC(N)=C(C#N)C2c1ccccc1` (stereo not drawn), the “Log (1/C)” value is 6.44. On to `COc1ccc2c(c1)OC(N)=C(C#N)C2c1cc(OC)c(OC)c(OC)c1` (stereo not drawn), for which the “Log (1/C)” value was determined as 7.59. Take `COc1ccc2c(c1)OC(N)=C(C#N)C2c1cc(OC)c2c(c1)OCO2` (stereo not drawn): the “Log (1/C)” value is given as 6.8. The same measure for `COc1ccc2c(c1)OC(N)=C(C#N)C2c1cccnc1` (stereo not drawn): 6.77; for `N#CC1=C(N)Oc2c(ccc(N)c2N)C1c1cccc(C#N)c1` (stereo not drawn): 6.41; for `COc1cc(C2C(C#N)=C(N)Oc3cc4c(cc32)OCO4)cc2c1OCO2` (stereo not drawn): 6.68.

Regarding `COc1cc(C2C(C#N)=C(N)Oc3c2ccc(C)c3C)cc(Br)c1OC` (stereo not drawn), the “Log (1/C)” value amounted to 7.38. As for `COc1cc(C2C(C#N)=C(N)Oc3c2ccc(N)c3N)cc(Br)c1O` (stereo not drawn), the “Log (1/C)” value is 7.64.

Consider `COc1cc(C2C(C#N)=C(N)Oc3c2ccc(N)c3N)cc(I)c1OC` (stereo not drawn), for which the “Log (1/C)” value turned out to be 5.31.

For `COc1cc(C2C(C#N)=C(N)Oc3c2ccc(N)c3N)cc(Cl)c1OC` (stereo not drawn), the “Log (1/C)” value is 7.62. Take `COc1cccc(C2C(C#N)=C(N)Oc3cc(N(C)C)ccc32)c1OC` (stereo not drawn): the “Log (1/C)” value was 5.99.

Regarding `CN(C)c1ccc2c(c1)OC(N)=C(C#N)C2c1cccc(Br)c1` (stereo not drawn), the “Log (1/C)” value stood at 7.19.

As to `CN(C)c1ccc2c(c1)OC(N)=C(C#N)C2c1cccc(Cl)c1` (stereo not drawn), the “Log (1/C)” value is given as 6.95.

On to `CN(C)c1ccc2c(c1)OC(N)=C(C#N)C2c1cccs1` (stereo not drawn), for which the “Log (1/C)” value was found to be 6.7. In the case of `CN(C)c1ccc2c(c1)OC(N)=C(C#N)C2c1cccnc1` (stereo not drawn), the “Log (1/C)” value came out at 7.17.

For `COc1cc(C2C(C#N)=C(N)Oc3cc(N(C)C)ccc32)cc(Cl)c1OC` (stereo not drawn), the “Log (1/C)” value worked out at 7.74.

With `COc1ccc(C2C(C#N)=C(N)Oc3cc(N(C)C)ccc32)c(OC)c1OC` (stereo not drawn), the “Log (1/C)” value was found to be 5.5. With `CN(C)c1ccc2c(c1)OC(N)=C(C#N)C2c1cccc(F)c1` (stereo not drawn) the figure was 7.09; with `COc1cc(C2C(C#N)=C(N)Oc3cc(N(C)C)ccc32)cc(I)c1OC` (stereo not drawn), 7.74; with `CN(C)c1ccc2c(c1)OC(N)=C(C#N)C2c1ccccn1` (stereo not drawn), 6.33. Regarding `COc1cc(OC)c(C2C(C#N)=C(N)Oc3cc(N(C)C)ccc32)cc1OC` (stereo not drawn), the “Log (1/C)” value was 5.75. As to `Cc1cncc(C2C(C#N)=C(N)Oc3cc(N(C)C)ccc32)c1` (stereo not drawn), the “Log (1/C)” value was 7.96. For `Cc1cccc(C2C(C#N)=C(N)Oc3cc(N(C)C)ccc32)n1` (stereo not drawn), the “Log (1/C)” value is reported as 6.61. On to `CN(C)c1ccc2c(c1)OC(N)=C(C#N)C2c1cccc(OC(F)(F)F)c1` (stereo not drawn), for which the “Log (1/C)” value was 6.35. On to `COc1ccc(C2C(C#N)=C(N)Oc3cc(N(C)C)ccc32)cc1` (stereo not drawn), for which the “Log (1/C)” value was 5.8.

As for `Cc1cccc(C2C(C#N)=C(N)Oc3cc(N(C)C)ccc32)c1` (stereo not drawn), the “Log (1/C)” value was 6.87. For `CN(C)c1ccc2c(c1)OC(N)=C(C#N)C2c1cc(Br)c2c(c1)OCO2` (stereo not drawn), the “Log (1/C)” value is given as 6.61.

With `CN(C)c1ccc2c(c1)OC(N)=C(C#N)C2c1cc(Cl)cc(Cl)c1` (stereo not drawn), the “Log (1/C)” value is recorded as 7.12.

As to `COc1ccc(C2C(C#N)=C(N)Oc3cc(N(C)C)ccc32)cc1OC` (stereo not drawn), the “Log (1/C)” value is 6.6. For the compound `CCNc1ccc2c(c1)OC(N)=C(C#N)C2c1cccc(Cl)c1` (stereo not drawn), the “Log (1/C)” value was 6.92.

`CCNc1ccc2c(c1)OC(N)=C(C#N)C2c1cc(OC)c(OC)c(OC)c1` (stereo not drawn): the “Log (1/C)” value was 7.31. Take `CCNc1ccc2c(c1)OC(N)=C(C#N)C2c1cccc(OC)c1` (stereo not drawn): the “Log (1/C)” value turned out to be 6.96. With `COc1ccc(CC2C(C#N)=C(N)Oc3cc(N(C)C)ccc32)c(Br)c1OC` (stereo not drawn) the figure was 5.14; with `CCN(CC)c1ccc2c(c1)OC(N)=C(C#N)C2c1cc(OC)c2c(c1)OCO2` (stereo not drawn), 6.32. As to `COc1cc(C2C(C#N)=C(N)Oc3cc(O)ccc32)cc2c1OCO2` (stereo not drawn), the “Log (1/C)” value is 5.24.

For `COc1cc(C2C(C#N)=C(N)Oc3cc(Br)ccc32)cc(Br)c1OC` (stereo not drawn), the “Log (1/C)” value was 6.85. `COc1cc(C2C(C#N)=C(N)Oc3c2ccc(N)c3N)cc(Br)c1OC` (stereo not drawn): the “Log (1/C)” value came out at 7.47. With `COc1cc(OC)cc(C2C(C#N)=C(N)Oc3c2ccc(N)c3N)c1` (stereo not drawn), the “Log (1/C)” value is recorded as 7.04. On to `CCNc1ccc2c(c1)OC(N)=C(C#N)C2c1cc(Br)c(OC)c(OC)c1` (stereo not drawn), for which the “Log (1/C)” value is recorded as 7.85.

For `COc1cccc(C2C(C#N)=C(N)Oc3cc(OC)ccc32)c1` (stereo not drawn), the “Log (1/C)” value was found to be 7.28. As for `COc1cc(C2C(C#N)=C(N)Oc3cc(N(C)C)ccc32)cc2c1OCO2` (stereo not drawn), the “Log (1/C)” value was 7.14. As for `COc1cc(C2C(C#N)=C(N)Oc3cc(N)ccc32)cc2c1OCO2` (stereo not drawn), the “Log (1/C)” value turned out to be 5.92.

Take `CN(C)c1ccc2c(c1)OC(N)=C(C#N)C2c1cccc(O)c1` (stereo not drawn): the “Log (1/C)” value is given as 6.57. As for `CN(C)c1ccc2c(c1)OC(N)=C(C#N)C2c1cc(Br)cs1` (stereo not drawn), the “Log (1/C)” value worked out at 6.82.

In the case of `CN(C)c1ccc2c(c1)OC(N)=C(C#N)C2c1cccc(C#N)c1` (stereo not drawn), the “Log (1/C)” value is on record as 7.2. The same measure for `CN(C)c1ccc2c(c1)OC(N)=C(C#N)C2CCc1ccccc1` (stereo not drawn): 6.37; for `CN(C)c1ccc2c(c1)OC(N)=C(C#N)C2c1cnc2ccccc2c1` (stereo not drawn): 5.74; for `N#CC1=C(N)Oc2c(ccc(N)c2N)C1c1cccc([N+](=O)[O-])c1` (stereo not drawn): 6.41. The same measure for `COc1cc(C2C(C#N)=C(N)Oc3c2ccc(O)c3N)cc(Br)c1OC` (stereo not drawn): 7.21; for `COc1cncc(C2C(C#N)=C(N)Oc3cc(OC)ccc32)c1` (stereo not drawn): 7.33; for `COc1cc(C2C(C#N)=C(N)Oc3cc(N)ccc32)cc(Br)c1OC` (stereo not drawn): 7.48.

For `COc1cccc(C2C(C#N)=C(N)Oc3cc(N(C)C)ccc32)c1` (stereo not drawn), the “Log (1/C)” value came to 7.19. The same measure for `COc1cc(C2C(C#N)=C(N)Oc3cc(N(C)C)ccc32)cc(Br)c1O` (stereo not drawn): 7.39; for `CCNc1ccc2c(c1)OC(N)=C(C#N)C2c1cccc([N+](=O)[O-])c1` (stereo not drawn): 6.96. For `CCNc1ccc2c(c1)OC(N)=C(C#N)C2c1cc(OC)cc(OC)c1` (stereo not drawn), the “Log (1/C)” value was 7.26. Turning to `CN(C)c1ccc2c(c1)OC(N)=C(C#N)C2c1ccncc1` (stereo not drawn), the “Log (1/C)” value was determined as 6.42. As for `COc1cc(Br)cc(C2C(C#N)=C(N)Oc3cc(N(C)C)ccc32)c1` (stereo not drawn), the “Log (1/C)” value is recorded as 7.51. With `CN(C)c1ccc2c(c1)OC(N)=C(C#N)C2c1cncc(Br)c1` (stereo not drawn) the figure was 7.48; with `COc1cc(C2C(C#N)=C(N)Oc3c2ccc(N)c3C)cc(Br)c1OC` (stereo not drawn), 7.59.

Take `COc1ccccc1C1C(C#N)=C(N)Oc2cc(N(C)C)ccc21` (stereo not drawn): the “Log (1/C)” value is listed as 6.55.
